Experimental data from PubChem BioAssay AID2060909 (Molecular Pharmacology Branch, DTP, NCI, 2025).
Blank lines part the entries; values can stand above or below the compound they belong to.

Test system: 362531-283-R-J2-PDC complex spheroid viability
Test: Anticancer human tumor 362531-283-R-J2-PDC patient-derived colon adenocarcinoma cell line growth inhibition [RAS]
Conditions: for IC50: curve of first compound; for viability, T/C: stronger effect = lower value
How it was run: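 Multi-cell-type spheroids: tumor cells plus HUVEC endothelial cells and mesenchymal stem cells. RAS-pathway inhibitors were combined with targeted agents, each dosed in half-log steps down from clinical Cmax, or from 10 microM when Cmax was unknown.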

[1] = second compound 0.00316 µM, first compound 0.00316 µM
[2] = second compound 0.00316 µM, first compound 0.01 µM
[3] = second compound 0.00316 µM, first compound 0.0316 µM
[4] = second compound 0.00316 µM, first compound 0.1 µM
[5] = second compound 0.00316 µM, first compound 0.316 µM
[6] = second compound 0.00316 µM, first compound 1 µM
[7] = second compound 0.01 µM, first compound 0.00316 µM
[8] = second compound 0.01 µM, first compound 0.01 µM
[9] = second compound 0.01 µM, first compound 0.0316 µM
[10] = second compound 0.01 µM, first compound 0.1 µM
[11] = second compound 0.01 µM, first compound 0.316 µM
[12] = second compound 0.01 µM, first compound 1 µM
[13] = second compound 0.0316 µM, first compound 0.00316 µM
[14] = second compound 0.0316 µM, first compound 0.01 µM
[15] = second compound 0.0316 µM, first compound 0.0316 µM
[16] = second compound 0.0316 µM, first compound 0.1 µM
[17] = second compound 0.0316 µM, first compound 0.316 µM
[18] = second compound 0.0316 µM, first compound 1 µM
[19] = second compound 0.1 µM, first compound 0.00316 µM
[20] = second compound 0.1 µM, first compound 0.01 µM
[21] = second compound 0.1 µM, first compound 0.0316 µM
[22] = second compound 0.1 µM, first compound 0.1 µM
[23] = second compound 0.1 µM, first compound 0.316 µM
[24] = second compound 0.1 µM, first compound 1 µM
[25] = second compound 0.316 µM, first compound 0.00316 µM
[26] = second compound 0.316 µM, first compound 0.01 µM
[27] = second compound 0.316 µM, first compound 0.0316 µM
[28] = second compound 0.316 µM, first compound 0.1 µM
[29] = second compound 0.316 µM, first compound 0.316 µM
[30] = second compound 0.316 µM, first compound 1 µM
[31] = second compound 1 µM, first compound 0.00316 µM
[32] = second compound 1 µM, first compound 0.01 µM
[33] = second compound 1 µM, first compound 0.0316 µM
[34] = second compound 1 µM, first compound 0.1 µM
[35] = second compound 1 µM, first compound 0.316 µM
[36] = second compound 1 µM, first compound 1 µM
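Note: spheroids exposed to the agents for 7 days before readout.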
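Throughout, for viability, T/C: luminescence viability as percent of DMSO vehicle control wells.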

IC50 (second compound 0.00316 µM): > 1000 nM
IC50 (second compound 0.01 µM): > 1000 nM
IC50 (second compound 0.0316 µM): > 1000 nM
IC50 (second compound 0.1 µM): > 1000 nM
IC50 (second compound 0.316 µM): > 1000 nM
IC50 (second compound 1 µM): > 1000 nM
Structure (SMILES): CCN1CCN(Cc2ccc(Nc3ncc(F)c(-c4cc(F)c5nc(C)n(C(C)C)c5c4)n3)nc2)CC1 + C=CC(=O)N1CCN(c2nc(OCC3CCCN3C)nc3c(F)c(-c4nc(N)cc(C)c4C(F)(F)F)c(Cl)cc23)C(C)C1
viability, T/C [1]: 108%
viability, T/C [2]: 99.2%
viability, T/C [3]: 106%
viability, T/C [4]: 76%
viability, T/C [5]: 66.9%
viability, T/C [6]: 80.2%
viability, T/C [7]: 93.5%
viability, T/C [8]: 101%
viability, T/C [9]: 88.2%
viability, T/C [10]: 78.3%
viability, T/C [11]: 66.7%
viability, T/C [12]: 71.4%
viability, T/C [13]: 99.1%
viability, T/C [14]: 94.3%
viability, T/C [15]: 96.7%
viability, T/C [16]: 68.3%
viability, T/C [17]: 66.9%
viability, T/C [18]: 100%
viability, T/C [19]: 102%
viability, T/C [20]: 108%
viability, T/C [21]: 98.8%
viability, T/C [22]: 70%
viability, T/C [23]: 73.3%
viability, T/C [24]: 82.5%
viability, T/C [25]: 114%
viability, T/C [26]: 94.8%
viability, T/C [27]: 101%
viability, T/C [28]: 73%
viability, T/C [29]: 77.9%
viability, T/C [30]: 81.1%
viability, T/C [31]: 102%
viability, T/C [32]: 108%
viability, T/C [33]: 94.6%
viability, T/C [34]: 70.8%
viability, T/C [35]: 69.9%
viability, T/C [36]: 72.9%

IC50 (second compound 0.00316 µM): > 1000 nM
IC50 (second compound 0.01 µM): > 1000 nM
IC50 (second compound 0.0316 µM): > 1000 nM
IC50 (second compound 0.1 µM): > 1000 nM
IC50 (second compound 0.316 µM): > 1000 nM
IC50 (second compound 1 µM): > 1000 nM
Structure (SMILES): C=CC(=O)Nc1cc(Nc2nccc(-c3cn(C)c4ccccc34)n2)c(OC)cc1N(C)CCN(C)C + C=CC(=O)N1CCN(c2nc(OCC3CCCN3C)nc3c(F)c(-c4nc(N)cc(C)c4C(F)(F)F)c(Cl)cc23)C(C)C1
viability, T/C [1]: 103%
viability, T/C [2]: 97.4%
viability, T/C [3]: 100%
viability, T/C [4]: 95.6%
viability, T/C [5]: 89%
viability, T/C [6]: 69.8%
viability, T/C [7]: 107%
viability, T/C [8]: 100%
viability, T/C [9]: 104%
viability, T/C [10]: 98.3%
viability, T/C [11]: 96.9%
viability, T/C [12]: 56%
viability, T/C [13]: 104%
viability, T/C [14]: 99.2%
viability, T/C [15]: 98.3%
viability, T/C [16]: 94.9%
viability, T/C [17]: 93.5%
viability, T/C [18]: 65.5%
viability, T/C [19]: 103%
viability, T/C [20]: 104%
viability, T/C [21]: 101%
viability, T/C [22]: 96.8%
viability, T/C [23]: 101%
viability, T/C [24]: 62.8%
viability, T/C [25]: 93.8%
viability, T/C [26]: 96%
viability, T/C [27]: 98.1%
viability, T/C [28]: 94.8%
viability, T/C [29]: 96.2%
viability, T/C [30]: 54.9%
viability, T/C [31]: 105%
viability, T/C [32]: 95.8%
viability, T/C [33]: 97.4%
viability, T/C [34]: 103%
viability, T/C [35]: 86.5%
viability, T/C [36]: 70.7%
